Laboratory results taken from patent US11065253B2, “Arylquinazolines” (Merck Patent GmbH, priority 2013, dated 2021).
Where two headings read alike, the source gives them in different places.

Tested on: phospho-serine 2056 DNA-PK in HCT116 cells
Experiment: DNA-PK phosphorylation at serine 2056 (cellular), ELISA in bleomycin-treated HCT116 cells
Assay type: cell-based
Settings: read-out: IC50 pDNA-PK
Summary of the method: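 Test compounds and bleomycin (10 μM) are added to adherent HCT116 cells for 6 h. Detection uses an HRP-based chemiluminescent ELISA, with phospho-DNA-PK signals standardised to total protein.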

[1] = Homo sapiens, HCT-116, phospho-serine 2056 DNA-PK, bleomycin-treated HCT116 cells, class symbols A-D
[2] = phospho-serine 2056 DNA-PK, bleomycin-treated HCT116 cells, class symbols A-D
[3] = Homo sapiens, HCT-116, phospho-serine 2056 DNA-PK, bleomycin-treated HCT116 cells
[4] = phospho-serine 2056 DNA-PK, bleomycin-treated HCT116 cells

| Structure (SMILES) | IC50 [1] [µM] | IC50 [3] [µM] | also measured |
| --- | --- | --- | --- |
| Fc1ccc(C(OC(F)F)c2nccs2)cc1-c1ncnc2cc(N3CCOCC3)ccc12 (centres unmarked) [Example 199, 4-[5-(Difluoro-methoxy-thiazol-2-ylmethyl)-2-fluoro-phenyl]-7-morpholin-4-yl-quinazoline] | 10 to 30 |  |  |
| Cc1nc(C(O)c2ccc(F)c(-c3ncnc4cc(N5CCOCC5)ccc34)c2)sc1CO (centres unmarked) [Example 200, [4-Fluoro-3-(7-morpholin-4-yl-quinazolin-4-yl)-phenyl]-(5-hydroxy-methyl-4-methyl-thiazol-2-yl)-methanol] | 5 to 10 |  |  |
| CC(O)c1csc(C(O)c2cc(-c3ncnc4cc(N5CCOCC5)ccc34)c(F)cc2Cl)n1 (centres unmarked) [Example 201, 1-(2-{[2-Chloro-4-fluoro-5-(7-morpholin-4-yl-quinazolin-4-yl)-phenyl]hydroxy-methyl}thiazol-4-yl)-ethanol] | 0.5 to 5 |  |  |
| CCn1cc(C(O)c2cc(-c3ncnc4cc(N5CCOCC5)ccc34)c(F)cc2Cl)cn1 (centres unmarked) [Example 202, [2-Chloro-4-fluoro-5-(7-morpholin-4-ylquinazolin-4-yl)-phenyl]-(1-ethyl-1H-pyrazol-4-yl)-methanol] | 0.5 to 5 |  |  |
| Cc1nc(C(O)c2cnc(F)c(-c3ncnc4cc(N5CCOCC5)ncc34)c2)sc1C (centres unmarked) [Example 203, (4,5-Dimethyl-thiazol-2-yl)-[6-fluoro-5-(7-morpholin-4-yl-pyrido[4,3-d}-pyrimidin-4-yl)-pyridin-3-yl]-methanol] |  |  | IC50 [2]: 10 to 30 µM |
| Cc1nc([C@H](O)c2cnc(F)c(-c3ncnc4cc(N5CCOCC5)ncc34)c2)sc1C [Example 204, (R)-(4,5-Dimethyl-thiazol-2-yl)-[6-fluoro-5-(7-morpholin-4-yl-pyrido[4,3-d}-pyrimidin-4-yl)-pyridin-3-yl]-methanol] |  |  | IC50 [2]: 10 to 30 µM |
| Cc1nc(C(O)c2cc(-c3ncnc4cc(N5CCOCC5)ccc34)cnc2F)sc1C (centres unmarked) [Example 205, (4,5-Dimethyl-thiazol-2-yl)-[2-fluoro-5-(7-morpholin-4-yl-quinazolin-4-yl)-pyridin-3-yl]-methanol] | 10 to 30 |  |  |
| Cn1nccc1C(O)c1ccc(F)c(-c2nc(Cl)nc3cc(N4CCOCC4)ccc23)c1 (centres unmarked) [Example 214, [3-(2-Chloro-7-morpholin-4-yl-quinazolin-4-yl)-4-fluoro-phenyl]-(2-methyl-2H-pyrazol-3-yl)-methanol] |  |  | IC50 (Homo sapiens, HCT-116, 6 h, cellular, HCT116 cells, 10 μM bleomycin, six hours): 10 to 30 µM |
| OC(c1cccnc1)c1cc(-c2ncnc3cc(N4CCOCC4)ccc23)c(F)cc1F (centres unmarked) [Example 217, [2,4-Difluoro-5-(7-morpholin-4-yl-quinazolin-4-yl)-phenyl]pyridin-3-yl-methanol] | < 0.5 |  |  |
| OC(c1ccccn1)c1cc(-c2ncnc3cc(N4CCOCC4)ccc23)c(F)cc1F (centres unmarked) [Example 218, [2,4-Difluoro-5-(7-morpholin-4-yl-quinazolin-4-yl)-phenyl]pyridin-2-yl-methanol] | < 0.5 |  |  |
| Cn1nc(C(O)c2cc(-c3ncnc4cc(N5CCOCC5)ccc34)c(F)cc2F)ccc1=O (centres unmarked) [Example 219, 6-{[2,4-Difluoro-5-(7-morpholin-4-yl-quinazolin-4-yl)-phenyl]hydroxy-methyl}-2-methyl-2H-pyridazin-3-one] | 0.5 to 5 |  |  |
| Cn1nc(C(O)c2ccc(F)c(-c3ncnc4cc(N5CCOCC5)ccc34)c2F)ccc1=O (centres unmarked) [Example 220, 6-{[2,4-Difluoro-3-(7-morpholin-4-yl-quinazolin-4-yl)-phenyl]hydroxy-methyl}-2-methyl-2H-pyridazin-3-one] | 5 to 10 |  |  |
| COc1ccc(C(O)c2cc(-c3ncnc4cc(N5CCOCC5)ccc34)c(F)cc2F)cn1 (centres unmarked) [Example 221, [2,4-Difluoro-5-(7-morpholin-4-yl-quinazolin-4-yl)-phenyl]-(6-methoxy-pyridin-3-yl)methanol] | 0.5 to 5 |  |  |
| OC(c1ccc2ncnn2c1)c1cc(-c2ncnc3cc(N4CCOCC4)ccc23)c(F)cc1F (centres unmarked) [Example 222, [2,4-Difluoro-5-(7-morpholin-4-yl-quinazolin-4-yl)-phenyl]-[1,2,4]-triazolo[1,5-a]pyridin-6-ylmethanol] | 0.5 to 5 |  |  |
| OC(c1cn2ccnc2cn1)c1cc(-c2ncnc3cc(N4CCOCC4)ccc23)c(F)cc1F (centres unmarked) [Example 223, [2,4-Difluoro-5-(7-morpholin-4-yl-quinazolin-4-yl)-phenyl]imidazo-[1,2-a]pyrazin-6-yl-methanol] | 0.5 to 5 |  |  |
| COc1ccc(C(O)c2cc(-c3ncnc4cc(N5CCOCC5)ccc34)c(F)cc2F)nc1 (centres unmarked) [Example 224, [2,4-Difluoro-5-(7-morpholin-4-yl-quinazolin-4-yl)-phenyl]-(5-methoxy-pyridin-2-yl)methanol] | 0.5 to 5 |  |  |

| Structure (SMILES) | IC50 [1] [µM] | IC50 [3] [µM] | also measured |
| --- | --- | --- | --- |
| [2H]c1c(N2CCOCC2)cc2ncnc(-c3cc(C(O)c4ccc(OC)nn4)c(Cl)cc3F)c2c1[2H] (centres unmarked) [Example 225, [2-Chloro-5-(5,6-dideuterio-7-morpholino-quinazolin-4-yl)-4-fluorophenyl]-(6-methoxypyridazin-3-yl)methanol] |  | < 0.5 |  |
| [2H]c1c(N2CCOCC2)cc2ncnc(-c3cc(C(O)c4nccnc4C)ccc3F)c2c1[2H] (centres unmarked) [Example 226, [3-(5,6-Dideuterio-7-morpholino-quinazolin-4-yl)-4-fluorophenyl]-(3-methylpyrazin-2-yl)-methanol] |  | < 0.5 |  |
| CNC(=O)C(c1cc(-c2ncnc3cc(N4CCOCC4)ccc23)c(F)cc1Cl)c1nccnc1OC (centres unmarked) [Example 229, 2-[2-Chloro-4-fluoro-5-(7-morpholin-4-yl-quinazolin-4-yl)-phenyl]-2-(3-methoxypyrazin-2-yl)-N-methyl-acetamide] |  | 0.5 to 5 |  |
| Cc1nccnc1[C@@H](O)c1ccc(F)c(-c2ncnc3cc(N4CCOCC4)cnc23)c1 [Example 233, (S)-[4-Fluoro-3-(7-morpholin-4-yl-pyrido[3,2-d}-pyrimidin-4-yl)-phenyl]-(3-methyl-pyrazin-2-yl)-methanol] |  | 10 to 30 |  |
| Cc1nccnc1[C@H](O)c1ccc(F)c(-c2ncnc3cc(N4CCOCC4)cnc23)c1 [Example 234, (R)-[4-Fluoro-3-(7-morpholin-4-yl-pyrido[3,2-d}-pyrimidin-4-yl)-phenyl]-(3-methyl-pyrazin-2-yl)-methanol] |  | < 0.5 |  |
| Cc1nccnc1C(O)c1ccc(F)c(-c2ncnc3cc(N4CCOCC4)cnc23)c1 (centres unmarked) [Example 237, [4-Fluoro-3-(7-morpholin-4-yl-pyrido[3,2-d}-pyrimidin-4-yl)-phenyl]-(3-methyl-pyrazin-2-yl)-methanol] |  | < 0.5 |  |
| [2H]C1([2H])OC([2H])([2H])C([2H])([2H])N(c2ccc3c(-c4cc(C(O)c5nccnc5C)ccc4F)ncnc3c2)C1([2H])[2H] (centres unmarked) [Example 238, [4-Fluoro-3-[7-(2,2,3,3,5,5,6,6-octadeuterio-morpholin-4-yl)quinazolin-4-yl]phenyl]-(3-methyl-pyrazin-2-yl)-methanol] |  | < 0.5 |  |
| [2H]C1([2H])OC([2H])([2H])C([2H])([2H])N(c2ccc3c(-c4cc(C(O)c5ccc(OC)nn5)c(Cl)cc4F)ncnc3c2)C1([2H])[2H] (centres unmarked) [Example 239, [2-Chloro-4-fluoro-5-[7-(2,2,3,3,5,5,6,6-octadeuterio-morpholin-4-yl)quinazolin-4-yl]phenyl]-(6-methoxypyridazin-3-yl)methanol] |  |  | IC50 [4]: 10 to 30 µM |
| Cc1nccnc1C(O)c1cc(-c2ncnc3cc(N4CCOCC4)cnc23)c(F)cc1Cl (centres unmarked) [Example 240, [2-Chloro-4-fluoro-5-(7-morpholin-4-yl-pyrido[3,2-d}-pyrimidin-4-yl)-phenyl]-(3-methyl-pyrazin-2-yl)-methanol] |  | 0.5 to 5 |  |
| [2H]C1([2H])OC([2H])([2H])C([2H])([2H])N(c2ccc3c(-c4cc(C(O)c5nccnc5OC)c(Cl)cc4F)ncnc3c2)C1([2H])[2H] (centres unmarked) [Example 241, [2-Chloro-4-fluoro-5-[7-(2,2,3,3,5,5,6,6-octadeuterio-morpholin-4-yl)quinazolin-4-yl]phenyl]-(3-methoxypyrazin-2-yl)methanol] |  | < 0.5 |  |
| [2H]C1([2H])OC([2H])([2H])C([2H])([2H])N(c2ccc3c(-c4cc(C(O)c5nccnc5OC)c(Cl)cc4F)ncnc3c2)C1([2H])[2H] (centres unmarked) [Example 242, [2-Chloro-4-fluoro-5-[7-(2,2,3,3,5,5,6,6-octadeuterio-morpholin-4-yl)quinazolin-4-yl]phenyl]-(3-methoxypyrazin-2-yl)methanol] |  |  | IC50 [4]: < 0.5 µM |
| [2H]C1([2H])OC([2H])([2H])C([2H])([2H])N(c2ccc3c(-c4cc([C@H](O)c5nccnc5C)ccc4F)ncnc3c2)C1([2H])[2H] [Example 243, (S)-[4-Fluoro-3-[7-(2,2,3,3,5,5,6,6-octadeuterio-morpholin-4-yl)quinazolin-4-yl]phenyl]-(3-methylpyrazin-2-yl)methanol] |  |  | IC50 [4]: 0.5 to 5 µM |
| [2H]C1([2H])OC([2H])([2H])C([2H])([2H])N(c2ccc3c(-c4cc(C(O)c5ccc(OC)nn5)c(Cl)cc4F)ncnc3c2)C1([2H])[2H] (centres unmarked) [Example 244, [2-Chloro-4-fluoro-5-[7-(2,2,3,3,5,5,6,6-octadeuterio-morpholin-4-yl)quinazolin-4-yl]phenyl]-(6-methoxypyridazin-3-yl)methanol] |  |  | IC50 [4]: < 0.5 µM |
| Cc1nccnc1[C@H](O)c1ccc(F)c(-c2ncnc3cc(N4CCOCC4)cc(F)c23)c1 [Example 248, (R)-[4-Fluoro-3-(5-fluoro-7-morpholin-4-ylquinazolin-4-yl)-phenyl]-(3-methyl-pyrazin-2-yl)-methanol] |  | < 0.5 |  |
| COc1ccc(C(O)c2ccc(F)c(-c3ncnc4cc(N5CCOCC5)cc(F)c34)c2)nn1 (centres unmarked) [Example 260, [4-Fluoro-3-(5-fluoro-7-morpholin-4-yl-quinazolin-4-yl)-phenyl]-(6-methoxy-pyridazin-3-yl)-methanol] |  |  | IC50 [4]: < 0.5 µM |
| COc1nccnc1C(C(N)=O)c1cc(-c2ncnc3cc(N4CCOCC4)cc(F)c23)c(F)cc1Cl (centres unmarked) [Example 261, 2-[2-Chloro-4-fluoro-5-(5-fluoro-7-morpholin-4-yl-quinazolin-4-yl)-phenyl]-2-(3-methoxy-pyrazin-2-yl)acetamide] |  | 0.5 to 5 |  |
